Tests used:
[1] = target: T1, S-Adenosylmethionine Decarboxylase (AdoMet DC) (Mus musculus, UniProt P0DMN7); test: AdoMet DC inhibition in L1210 cell supernatants ([14C]CO2 release); type: biochemical, Murine
T1 construct: endogenous in cells; host or cells: murine leukemic L1210 cells (supernatant)
T1 sequence (P0DMN7 68-334 limits assumed): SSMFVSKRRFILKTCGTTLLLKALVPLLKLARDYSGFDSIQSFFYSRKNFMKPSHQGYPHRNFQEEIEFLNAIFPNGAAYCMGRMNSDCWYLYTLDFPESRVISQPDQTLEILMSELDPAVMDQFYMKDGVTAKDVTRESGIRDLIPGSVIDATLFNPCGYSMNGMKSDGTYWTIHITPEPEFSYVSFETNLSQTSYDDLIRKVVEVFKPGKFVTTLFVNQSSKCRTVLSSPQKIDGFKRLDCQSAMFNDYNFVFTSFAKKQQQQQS
T1 sequence (P0DMN7 1-67 limits assumed): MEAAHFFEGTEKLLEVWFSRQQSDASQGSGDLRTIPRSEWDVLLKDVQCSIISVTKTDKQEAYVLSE
Procedure: Murine leukemic L1210 cell supernatants were incubated with different concentrations of SDA or butyl dialdehyde, and AdoMet DC activity was estimated by monitoring the release of [¹⁴C] CO₂. Inhibition curves for both drugs were superimposable with IC₅₀ values of 0.12-0.13 x 10⁻³ M.

ALDH = ALDH assay in the mitochondrial fraction of L1210/CPA or mouse liver; type: biochemical; settings: SDA up to 2.5 mM
Procedure: (§1) Cultured murine leukemic cells and livers (excised from mice immediately after cervical dislocation) were homogenized in 3 volumes of ice-cold 1.15% KCl and 1 mM EDTA. The homogenate was centrifuged at 100,000 g for 45 min and the resulting supernatant was used to measure cytosolic ALDH activity. For particulate ALDH assay, the pellet (and homogenate for total ALDH) was resuspended in homogenizing buffer and treated with 0.25% Triton X-100 for 30 min at 4°C. The solubilized preparations were centrifuged at 48,000 g for 30 min and the supernatants were drawn off for ALDH determinations.
(§2) ALDH activity was measured by monitoring the reduction of NAD or NADp for 5-6 min at […] at 37°C in DU70 spectrophotometer (Beckman). The assay mixture contained 50 mM potassium phosphate buffer, pH 7.4, 2.0 mM NAD (or NADP) and 1.0 mM EDTA. The reaction was started by adding the substrate (SDA or other aldehyde) to the prewarmed (5 min at 37°C) assay mixture containing enzyme preparation. Pyrazole (0.1 mM) was added particularly for liver enzyme, to inhibit alcohol dehydrogenase. The apparent Km and maximum velocity (Vmax) values were calculated using a Lineweaver-Burk plot based on the estimation of the slope by regression analysis. Enzyme activity was expressed as mU (nmoles/min) per mg of protein. Protein contents were determined by the Bradford method, using bovine serum albumin as the standard.

Ornithine decarboxylase = Ornithine decarboxylase (Mus musculus, UniProt P00860); test: Ornithine decarboxylase inhibition; type: biochemical; settings: Figure 10
Sequence of Ornithine decarboxylase (P00860 whole entry): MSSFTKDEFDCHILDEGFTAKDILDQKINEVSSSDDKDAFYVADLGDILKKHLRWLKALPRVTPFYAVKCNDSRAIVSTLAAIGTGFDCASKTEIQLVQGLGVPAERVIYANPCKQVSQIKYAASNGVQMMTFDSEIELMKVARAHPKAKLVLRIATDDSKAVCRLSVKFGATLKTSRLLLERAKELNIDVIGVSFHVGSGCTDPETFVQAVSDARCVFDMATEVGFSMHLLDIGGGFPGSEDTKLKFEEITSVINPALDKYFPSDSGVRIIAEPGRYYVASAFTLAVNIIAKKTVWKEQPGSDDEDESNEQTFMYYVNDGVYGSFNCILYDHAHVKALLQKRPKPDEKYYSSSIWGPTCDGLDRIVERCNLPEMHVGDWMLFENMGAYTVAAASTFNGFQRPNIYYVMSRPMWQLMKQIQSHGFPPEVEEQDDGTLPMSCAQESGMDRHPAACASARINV
Excerpt: The figure illustrates the comparative profile of the inhibition of key regulatory enzymes of polyamine synthesis by SDA, its analogue, butyl dialdehyde (BDA), difluoromethyl orinithine (DFMO) and methyl glyoxal bis (guanylhydrazone) (MGBG).

Human T lymphocytes = test: PHA driven human T cell proliferation after 1 hour incubation; type: cell-based; settings: 0.62 x 10⁻² mM, 1 hour at 37°C, washed; Figure 1
Procedure: Human T & B lymphocytes were incubated separately with different concentrations of spermine dialdehyde in vitro for 1 hour. Cells were washed extensively and set up in a PHA (for T cell) or PWM (B cell) proliferation assay. A graph is depicted wherein percentage of response is plotted as a function of concentration of spermine dialdehyde.
Peripheral blood lymphocytes (PBL) were obtained from the blood of normal donors by using standard Ficoll-Hypaque gradient techniques. The T and non-T cells were separated by standard sheep red blood cell (SRBC) rosetting technique. Briefly, 5 x 10⁶/ml PBL were incubated with 1% neuraminidase-treated SRBC, and rosetted cells were separated from non-rosetted cells in a Ficoll-Hypaque gradient. The rosetted cells were designated as T cells. Purified B lymphocytes were obtained from non-rosetted cells by removal of residual T cells using the Pan T monoclonal antibody OKT 11 and complement.
T cell proliferation: 7 x 10⁴ - 10⁵ human T lymphocytes were cultured in flat bottom microtiter plates (Flow) in the presence of 0.1% PHA-P or 1/64 PWM for 4 days. 3H-thymidine (0.1 MCi/well) was added for the last 6 hours of the culture period. […] Cell associated radioactivity was determined by scintillation counting in an automated counter. All of the results were expressed as % response calculated according to the formula: [formula] […]

[2] = tested on: Cytosolic ALDH in mouse liver; test: NAD-linked cytosolic ALDH assay, mouse liver; type: biochemical
Procedure: as §1, §2

**Q.** `O=CCCNCCCCNCCC=O` [SDA, NN′-Bis-(3-propionaldehyde)-1-4-diaminobutane] was tested. Which “inhibition of AdoMet DC (in words)” value ([1]; Fig. 9 and Figure 10) did it give?
**A.** inhibited both of the key enzymes

**Q.** And the IC50 ([1]; Figure 9, inhibition curves superimposable, read-out: IC₅₀ values)?
**A.** 120 to 130 µM

**Q.** What about the “ALDH activity in the mitochondrial fraction” value (ALDH) of the same compound?
**A.** could not be measured

**Q.** And the “inhibition of ODC (in words)” value (Ornithine decarboxylase)?
**A.** inhibited both of the key enzymes

**Q.** What about the “inhibited T cell proliferation” value (Human T lymphocytes) of the same compound?
**A.** 85%

**Q.** What about the “specific activity of ALDH, liver compared to L1210 cells” value ([2]; SDA as substrate, per mg protein) of the same compound?
**A.** 1.5 times

**Q.** And the Km ([2]; as substrate, mouse liver cytosol, NAD, ± SEM, 3-4 experiments)?
**A.** 48.5 µM

**Q.** What about the “Specific (activity of ALDH)” value ([2]; as substrate, mouse liver cytosol, propionaldehyde 1.0 mM) of the same compound?
**A.** 10.5 ± 3.2 mU/mg Protein
